Experimental findings from paper PMC10251509, “Ultrafast Fragment Screening Using Photo-Hyperpolarized (CIDNP) NMR” (Journal of the American Chemical Society, 2023) are described below.

Like-named read-outs stand apart in the source and are kept apart here.

What is called Kd is a measure of binding affinity in units of concentration.

Common to all, as to format: binding
Experiment [1] deals with T1, PIN1 (Homo sapiens, UniProt Q13526).
T1 construct: polyhistidine (N); made in house; host or cells: Escherichia coli BL21 (DE3)
In words: T1ρ relaxation NMR experiment, PIN1. As for the experimental part: (§1) For comparison, the signal decay during a T1ρ NMR experiment was measured at the same sample conditions as the photo-CIDNP experiments (Table 2). The signal decay between two T1ρ relaxation delays of 10 and 400 ms is measured in the absence and presence of the PIN1 protein. The increase in signal decay is calculated as the ratio of the integral’s ratio, i.e., (Γ400ms/Γ10ms)PL/(Γ400ms/Γ10ms)L. The most affine binders, compounds 1 and 13, show a significant reduction of the T1ρ decay ratio upon PIN1 addition, witnessing an increase in the relaxation decay. […] The signal-to-noise of the T1ρ spectra were ca. 300 for a number of transients of 512, corresponding to a measurement time of 25 min, while the photo-CIDNP experiments provided a signal-to-noise of ca. 100 for a single-scan experiment corresponding to a two second’s experiment. […] The signal-to-noise of the STD NMR experiments[1] was only 25 and 19 for compounds 1 and 13, respectively, after 50 min measurement corresponding to a 512 transient’s experiment.
(§2) For the control binding experiments using ligand-induced chemical shift perturbation analysis, standard [^15N, ^1H]-HSQC spectra were measured. The detailed conditions for the 2D experiments acquired at 600 MHz ^1H NMR frequency were the 100 μM ^15N-labeled PDZ2 domain in the absence and presence of equimolar peptide in PDZ2 buffer and at a temperature of 298 K and 50 μM ^15N-labeled PIN1 in the absence and presence of 200 μM ligands in PIN1 buffer and at a temperature of 298 K, respectively. Typically, 220 (t1,max (^15N) = 47.6 ms) × 1024 (t2,max (^1H) = 60.8 ms) complex points, an interscan delay of 0.8 s, and 12 scans per increment were measured. The data was zero–filled to 2048 points in the direct proton dimension and to 256 points in the ^15N–dimension. Processing was done with a shifted cosine window function for both dimensions. […] The spinlock times were set at 10 and 400 ms. The STD experiments were measured at 298 K with 16,384 (tmax (^1H) = 974 ms) complex points and 512 scans per increment. The on-resonance saturation pulse was set at 0 ppm, and the off-resonance saturation pulse was set to 40 ppm with a saturation time of 1 s.

For experiment [2], the target named is T1, PIN1. In words: [15N,1H]-HSQC titration series with increasing ligand concentration, PIN1. The settings on record: values with * could not be fitted to a maximum, Kd most likely higher. On the procedure: (B) Chemical shift perturbation titration studies of the compounds with ^15N-labeled PIN1 measured by [^15N,^1H]-HSQC experiments and shown for residues T154 and A124 in the presence of increasing ligand concentrations. […]
as §2, with “Typically, 220 (t1,max (^15N) = 47.6 ms) × 1024 (t2,max (^1H) = 60.8 ms) complex points, an interscan delay of 0.8 s, and 12 scans per increment were measured.” left out, “increment.” for “increment. The on-resonance saturation pulse was set at 0 ppm, and the off-resonance saturation pulse was set to 40 ppm with a saturation time of 1 s.”
Figure S7: Chemical shift perturbation-based Kd determination of individual compounds binding to PIN1. The chemical shift displacement of the 15N-1H moieties of A124 (black) and T154 (red) PIN1 (y-axis) in dependence on the compound […]
The fits to the titrations are highlighted by a line and the Kd extracted is given in mM. Compound 13 titration series ranges 0, 80, 100, 200, 300, 600, 1000, […]
concentration; compounds 3, 10, and 11 range 0, 200, 500, 1000, 2000, 3000 µM concentration and all the samples contained 80 µM of PIN1 protein and were measured in PIN1 buffer at 298K. […]

In experiment [3] the target is T1, PIN1. In words: [15N,1H]-HSQC hit validation (chemical shift perturbations) on 15N-labeled PIN1. The settings on record: 50 μM 15N-labeled PIN1, 200 μM fragment. On the procedure: As proposed in the theoretical part, the photo-CIDNP traces were recorded in the presence and absence of PIN1. The peak intensity and chemical shifts were analyzed pairwise to identify the hits. […] The reference apo-PIN1 sample was spiked with 1.9 μL of DMSO to compensate for the DMSO that is introduced upon fragment addition, as the fragments are stored in stock solutions of 5 mM 90% DMSO-d6 and 10% D2O.
For the control binding experiments using ligand-induced chemical shift perturbation analysis, standard [^15N, ^1H]-HSQC spectra were measured. […] Processing was done with a shifted cosine window function for both dimensions. […] The spinlock times were set at 10 and 400 ms.

Experiment [4] addresses T1, PIN1. In words: saturation transfer difference (STD) NMR, PIN1. Further details: key to STD: The observation of ligand signals in the STD NMR spectra detects a protein–ligand interaction; (+); the absence of a signal fails to detect protein–ligand interaction (−). The settings on record: 200 μM ligand with 20 μM protein. On the procedure: as §1, §2

T1 sequence (Q13526 whole entry): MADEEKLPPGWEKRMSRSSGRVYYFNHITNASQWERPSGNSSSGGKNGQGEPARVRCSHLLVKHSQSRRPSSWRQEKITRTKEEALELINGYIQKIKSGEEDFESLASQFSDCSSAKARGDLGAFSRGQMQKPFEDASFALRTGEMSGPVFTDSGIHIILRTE

With `Cc1cccc(-c2nc(C)c(C(=O)O)[nH]2)c1` [Compound 13, reference compound], the T1ρ decay ratio at PIN1 [1] (200 μM ligand, ±20 μM protein, (Γ400ms/Γ10ms)PL/(Γ400ms/Γ10ms)L) turned out to be 0.45; on PIN1 [1] (low concentration, same sample conditions: 20 μM ligand (compound 1: 5 μM), ±2 μM PIN1), 0.76. Besides, the Kd on PIN1 [2] (fit of CSP build-up of residue A124, read-out: Kd A124) worked out at 4.5 mM; at PIN1 [2] (fit of CSP build-up of residue T154, read-out: Kd T154), 1.7 mM. At PIN1 [3], the “fragment-induced CSPs in [15N,1H]-HSQC” value is “strong CSPs”. Besides, on PIN1 [3] (median only of signals showing CSP), the “median CSP” value came to 0.119. On PIN1 [4], the STD entry is “+”. For the same compound, at PIN1 [4] (512 transients), the “STD NMR observation” value is given as “shows a signal”.
